{"source": "patent US5441983A", "about": "“Treatment of infection by enveloped virus with calix(N)arene compounds” (Genelabs Incorporated, priority 1992, dated 1995)", "key": {"HSV-2": {"system": "HSV-2", "assay": "Topical treatment of genital HSV-2 infection, guinea pigs, first study", "method": "Briefly, female guinea pigs were infected intravaginally with HSV-2, then treated topically three times daily beginning 6 hours or 48 hours after inoculation with HSV-2, as described in Example 13. […] Swabs of vaginal secretion were obtained and assayed for viral activity by a standard CPE assay. The severity of genital lesions was scored on a 0-5+ scale through the period of primary infection (21 days).\nThe MS strain of HSV-2 was utilized for the experimental animal infection. Female Hartley strain guinea pigs (Charles River Breeding Laboratories, Kingston, NY) weighing 250-300 g were inoculated intravaginally with 2.0×10^5 plaque-forming units of HSV-2 one hour after being swabbed for removal of vaginal secretions.\nIn the first study, groups of 10 guinea pigs were treated topically (0.1 ml intravaginally +0.1 ml on external genital skin) three times daily (approximately every eight hours) for seven days beginning 6 h or 48 h after inoculation with HSV-2.\nTo determine the effect of treatment on vaginal viral replication, swabs of vaginal secretions were obtained on days 1, 3, 5, 7 and 10 after HSV inoculation, placed in a tube containing 2.0 ml of media, vortexed and frozen at -70° C. until titrated for HSV-2. When all samples were collected, they were thawed, diluted serially and HSV-2 titers determined using rabbit kidney cells in a microtiter CPE assay.\nTo determine the effect of therapy on the development and spread of external genital lesions, lesion severity was scored on a 0-5+ scale through the primary infection period (19-21 days). Lesion score-day areas and virus titer-day areas under the curve, and peak lesion scores and peak virus titers between untreated and placebo-treated or placebo-treated and drug-treated animals were compared using the Mann-Whitney U range sum test. A p-value of 0.05 or less was considered significant."}, "HSV-1 KOS (PFA)'": {"system": "HSV-1 KOS (PFA)'", "assay": "Inhibition of viral yield, drug-resistant HSV-1 KOS(PFA)'", "conditions": "Human alphaherpesvirus 1, HeLa, read-out: ID90"}, "[1]": {"system": "HSV glycoproteins gD, gB, and gC", "assay": "Identification of KY-1 binding proteins", "parameters": "species or system HSV-1", "conditions": "FIG. 32B", "text": "In a fourth study, the binding of radiolabeled KY-1 compound to HSV-1 and HSV-2 viral proteins was examined. After compound binding, virus proteins were fractionated by sodium dodecyl sulfate polyacrylamide gel electrophoresis (SDS-PAGE), and the gel patterns developed by autoradiography. In FIG. 32A, lanes A and B in the figure are autoradiographs of HSV-1 proteins in the presence ([…]) and absence (lane B) of mercaptoethanol, and lanes C and D, analogous patterns for HSV-2 proteins. The lane at the right contains the molecular weight markers, as indicated. The major bands of drug binding in HSV-1 have molecular weights, as determined from SDS-PAGE, of 45, 66, and about 130 kilodaltons.\nHSV-1 and HSV-2 virus suspensions were solubilized with SDS and fractionated on SDS-PAGE as above. Each sample was run in triplicate, corresponding to groups D, B, and C in FIG. 32B. The two gels in each group were analyzed by Western blotting as follows: The gels in groups D, B, and C were first reacted with mouse monoclonal antibody specific against HSV glycoprotein gD, gB, and dC, respectively. The antibodies were obtained from Dr. S. Chatterjee from the University of Alabama. The gels were then incubated with alkaline phosphatase-labeled goat antimouse antibody, to label the glycoprotein in each group. […]"}, "HSV-1": {"system": "HSV-1", "assay": "Inactivation of purified HSV-1 by compound, plaque number after serial dilution", "conditions": "for Plaque number, dilution 10^2 / Plaque number, dilution 10^3 / Plaque number, dilution 10^4 / Plaque number, dilution 10^5 / Plaque number, dilution 1 / Plaque number, dilution 10^1: 10 μg/ml, duplicate", "method": "In a third study, purified HSV-1 virus suspensions were incubated with KY-1 or the sodium salt thereof, or a control solution for 1 hour, then serially diluted to drug concentrations between 10^1 to 10^-4 μg/ml as described in Example 16. The \"X\" symbol in the table indicates plaques too numerous to count.\nPurified HSV-1 was suspended in RPMI-1640 medium (Gibco Laboratories) containing 2% FCS, penicillin and streptomycin. […] The suspensions were incubated for 1 hour at 37° C., then diluted serially at 10 fold dilutions to final drug concentrations of 10, 10^0, 10^-1, 10^-2, 10^-3 and 10^-4 μg/ml drug concentrations The serially diluted particles were then added to Vero cells for two hours, as in Example 6, and the cells examined for plaques 48 hours later."}, "HIV-HXB": {"system": "HIV-HXB", "assay": "Inhibition of syncytia formation, HIV-HXB (HTLV-IIIB)", "conditions": "Human immunodeficiency virus 1, 18 h, read-out: HIV-HXB ED100, complete inhibition of syncytia formation"}}}
{"smiles": "O=S(=O)(O)c1cc2cc(S(=O)(=O)O)c3c(O)c2c(O)c1Cc1c(S(=O)(=O)O)cc2cc(S(=O)(=O)O)c(c(O)c2c1O)Cc1c(S(=O)(=O)O)cc2cc(S(=O)(=O)O)c(c(O)c2c1O)Cc1c(S(=O)(=O)O)cc2cc(S(=O)(=O)O)c(c(O)c2c1O)C3", "note": "[KY-1]", "values": [{"measurement": "Lesion score Area Under Curve", "setting": "HSV-2; 1%, +6 h", "result": 30.8}, {"measurement": "Mean Peak lesion score", "setting": "HSV-2; 1%, +6 h", "result": 2.9}, {"measurement": "AUC, in words", "setting": "HSV-2; 1%, +6h, P<0.01", "result": "significantly reduced the AUC"}, {"measurement": "Lesion score Area Under Curve", "setting": "HSV-2; 1%, +48 h", "result": 46.6}, {"measurement": "Mean Peak lesion score", "setting": "HSV-2; 1%, +48 h", "result": 4.3}, {"measurement": "lesion development (AUC and mean peak lesion scores) versus placebo", "setting": "HSV-2; 5%, 6h after infection, P <0.001", "result": "significantly reduced"}, {"measurement": "Lesion score Area Under Curve", "setting": "HSV-2; 5%, +6 h", "result": 3.8}, {"measurement": "Mean Peak lesion score", "setting": "HSV-2; 5%, +6 h", "result": 0.8}, {"measurement": "Lesion score Area Under Curve", "setting": "HSV-2; 5%, +48 h", "result": 45.7}, {"measurement": "Mean Peak lesion score", "setting": "HSV-2; 5%, +48 h", "result": 3.7}, {"measurement": "IC90", "setting": "HSV-1 KOS (PFA)'", "result": 4.3, "unit": "µg/mL"}, {"measurement": "proteins bound (major bands)", "setting": "[1]", "result": "correspond in molecular weight, to HSV glycoproteins gD, gB, and gC"}, {"measurement": "Plaque number, dilution 10^2", "setting": "HSV-1; 0.3 pfu/cell", "result": "0,0"}, {"measurement": "Plaque number, dilution 10^3", "setting": "HSV-1; 0.3 pfu/cell", "result": "0,0"}, {"measurement": "Plaque number, dilution 10^4", "setting": "HSV-1; 0.3 pfu/cell", "result": "0,0"}, {"measurement": "Plaque number, dilution 10^5", "setting": "HSV-1; 0.3 pfu/cell", "result": "0,0"}, {"measurement": "Plaque number, dilution 1", "setting": "HSV-1; 0.3 pfu/cell, listed as KY 1", "result": "3,2"}, {"measurement": "Plaque number, dilution 10^1", "setting": "HSV-1; 0.3 pfu/cell, listed as KY 1", "result": "0,0"}, {"measurement": "Plaque number, dilution 10^4", "setting": "HSV-1; 3 pfu/cell", "result": "0,0"}, {"measurement": "Plaque number, dilution 10^5", "setting": "HSV-1; 3 pfu/cell", "result": "0,0"}, {"measurement": "Plaque number, dilution 1", "setting": "HSV-1; 3 pfu/cell, listed as KY 1", "result": "2,2"}, {"measurement": "Plaque number, dilution 10^1", "setting": "HSV-1; 3 pfu/cell, listed as KY 1", "result": "2,1"}, {"measurement": "Plaque number, dilution 10^2", "setting": "HSV-1; 3 pfu/cell, listed as KY 1", "result": "17,16"}, {"measurement": "Plaque number, dilution 10^3", "setting": "HSV-1; 3 pfu/cell, listed as KY 1", "result": "5,2"}, {"measurement": "final drug concentration with complete virus inhibition", "setting": "HSV-1; after dilution of treated virus", "result": "10^-2 to 10^-4 μg/ml"}, {"measurement": "EC100", "setting": "HIV-HXB", "result": 8, "unit": "µg/mL"}]}
